Reference: patent publication US20120014918A1, “ADDITION SALTS OF AMINES CONTAINING HYDROXYL AND/OR CARBOXYLIC GROUPS WITH AMINO NICOTINIC ACID DERIVATIVES AS DHODH INHIBITORS” (priority 2009, published 2012)
Counter-ions that a name gives are not always drawn.

Experiments:
Assay type in all cases: physicochemical
Water-solubility test = conditions: 25° C. (room temperature), expressed as acid
[1] = Dynamic Vapour Sorption (DVS) profiles; conditions: 25° C.; for Hygroscopicity according to the DVS pattern: sorption 0 to 95% RH and desorption; for Hysteresis in the DVS pattern: sorption/desorption isotherms; for Mass increase at 80% relative humidity: 80% RH; for Mass increase at 90% relative humidity: 90% RH
Procedure: Dynamic Vapour Sorption (DVS) profiles were obtained using an Igasorp Hiden Isochema instrument (serial number IGA-SA-066). After an initial stabilization period, at least two isotherms (at 25° C.) were obtained for each sample: a moisture sorption from 0 to 95% relative humidity and moisture desorption from 95% relative humidity to dryness. Both isotherms were performed in 10% humidity steps, with a minimum time of 10 minutes and a maximum time of 30 minutes for each step.

[2] = Differential scanning calorimetry (DSC) thermograms; conditions: heated 30 to 350° C. at 10° C./min
Procedure: The differential scanning calorimetry (DSC) thermograms analyses were obtained using a DSC-821 Mettler-Toledo instrument, serial number 5117423874. Samples were weighed into an aluminium pan, an aluminium lid placed on top of the sample and compressed with a brass rod. Samples were equilibrated at 30° C. and heated at 10° C./min to 350° C. The instrument was calibrated using indium and zinc standards.

SMILES	Water Solubility @ 25° C. (mg/mL as acid) (Water-solubility test) [mg/mL]	Hygroscopicity according to the DVS pattern [1]	Mass increase at 80% relative humidity [1] [%]	Mass increase at 90% relative humidity [1] [%]	Hysteresis in the DVS pattern [1]	Stability (no conversion into other polymorphs, no decomposition) from DSC thermogram [2]
COc1cccc(-c2cc(F)c(Nc3ncccc3C(=O)O)c(F)c2)c1 [C1, 2-[(3,5-difluoro-3′-methoxy-1,1′-biphenyl-4-yl)amino]nicotinic acid, reference compound]	0.004					
COc1cccc(-c2cc(F)c(Nc3ncccc3C(=O)O)c(F)c2)c1 [Ex. 1, 2-[(3,5-difluoro-3′-methoxy-1,1′-biphenyl-4-yl)amino]nicotinic acid, meglumine salt]	2.810	not hygroscopic			no hysteresis	high stability
COc1cccc(-c2cc(F)c(Nc3ncccc3C(=O)O)c(F)c2)c1 [Ex. 2, 2-[(3,5-difluoro-3′-methoxy-1,1′-biphenyl-4-yl)amino]nicotinic acid, tromethamine salt]	0.870	not hygroscopic			no hysteresis	high stability
CCOc1cccc(-c2ccc(Nc3ncccc3C(=O)O)c(OC(F)(F)F)c2)c1 [Ex. 3, 2-(3′-ethoxy-3-(trifluoromethoxy)biphenyl-4-ylamino)nicotinic acid, meglumine salt]	0.478	slightly hygroscopic	2.7	6.2	no hysteresis	high stability
Cc1c(-c2ccccc2)cc(F)c(Nc2ncccc2C(=O)O)c1F [Ex. 4, 2-(3,5-difluoro-2-methylbiphenyl-4-ylamino)nicotinic acid, meglumine salt]	0.210	not hygroscopic				
Cc1c(-c2ccccc2)cc(F)c(Nc2ncccc2C(=O)O)c1F [Ex. 5, 2-(3,5-difluoro-2-methylbiphenyl-4-ylamino)nicotinic acid, tromethamine salt]	0.490	a bit hygroscopic	5.7	14.9	without hysteresis	
COc1cccc(-c2cc(F)c(Nc3ncccc3C(=O)O)c(F)c2)c1 [Ex. 6, 2-[(3,5-difluoro-3′-methoxy-1,1′-biphenyl-4-yl)amino]nicotinic acid, L-arginine salt]						high stability

Continued, in another order:

Water Solubility @ 25° C. (mg/mL as acid) (Water-solubility test) [mg/mL]	Hygroscopicity according to the DVS pattern [1]	Mass increase at 80% relative humidity [1] [%]	Mass increase at 90% relative humidity [1] [%]	SMILES	Hysteresis in the DVS pattern [1]	Stability (no conversion into other polymorphs, no decomposition) from DSC thermogram [2]
0.008				CCOc1cccc(-c2ccc(Nc3ncccc3C(=O)O)c(OC(F)(F)F)c2)c1 [C2, 2-{[3′-ethoxy-3-(trifluoromethoxy)-1,1′-biphenyl-4-yl]amino}nicotinic acid, reference compound]		
0.002				Cc1c(-c2ccccc2)cc(F)c(Nc2ncccc2C(=O)O)c1F [C3, 2-[(3,5-difluoro-2-methyl-1,1′-biphenyl-4-yl)amino]nicotinic acid, reference compound]		
